In ChEMBL document CHEMBL4725355, “Design, Synthesis, and Preclinical Evaluation of 3-Methyl-6-(5-thiophenyl)-1,3-dihydro-imidazo[4,5-b]pyridin-2-ones as Selective GluN2B Negative Allosteric Modulators for the Treatment of Mood Disorders” (J Med Chem, 2020) one finds Ratio and microsomal CLint data, which are given here for one compound.

Data set [1] in a line: Ratio of Cmax in Sprague-Dawley rat at 250 mg/kg, po administered via gavage after 24 hrs using HPMC formulation by LC-MS/MS analysis to EC70 for ex vivo receptor occupancy at GluN2B in po dosed Sprague-Dawley rat assessed as 3-[3H] 1-(azetidin-1-yl)-2-[6-(4-fluoro-3-methyl-phenyl)pyrrolo[3,2-b]pyridin-1-yl]-ethanone labelling. In kind it is ADME, organism-based.
The nature of data set [2]: Intrinsic clearance in human liver microsomes at 1 uM after 5 to 60 mins in presence of NADPH by LC-MS/MS analysis. In kind it is ADME, Microsome. The note with it: time 5-60 min, read-out: CLH. (Microsomes from liver hold many membrane-bound enzymes, among them those of drug oxidation.)
A short description of data set [3]: Ratio of Cmax in Sprague-Dawley rat at 100 mg/kg, po administered via gavage after 24 hrs using nanosuspension formulation by LC-MS/MS analysis to EC70 for ex vivo receptor occupancy at GluN2B in po dosed Sprague-Dawley rat assessed as 3-[3H] 1-(azetidin-1-yl)-2-[6-(4-fluoro-3-methyl-phenyl)pyrrolo[3,2-b]pyridin-1-yl]-ethanone labelling. In kind it is ADME, organism-based.

The structures appear in SMILES notation.

`Cn1c(=O)n(CC(=O)N2CCC2)c2cc(-c3ccc(C(F)(F)F)s3)cnc21`: the Ratio in data set [1] came to 8; in data set [3], 13. In addition, in data set [2], the microsomal CLint at 1 µM stood at 5.4 µL/min/mg.
